Here are results for 29 molecules from PubChem BioAssay (NCI).

Several values for one entry are separate records, joined by “and”; a condition that tells them apart may be missing. Equal entries are not always repeated.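 48-hour exposure; five concentrations; linearly interpolated endpoints. GI50 = concentration required for 50% inhibition of growth. The concentration for full growth arrest is given as TGI.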

Common to all, as to test: growth of human tumour cells (NCI), 48 h
Experiment [1] concerns COLO 205 colon.
In experiment [2] the test system is MALME-3M melanoma.
Experiment [3] has as its system MOLT-4 leukemia.
Experiment [4] has as its system HCT-116 colon.
In experiment [5] the test system is U251 CNS.
Experiment [6] has as its system NCI-H23 lung.
Experiment [7] relates to EKVX NSCLC.
The test system of experiment [8] is LOX IMVI melanoma.
The test system of experiment [9] is NCI/ADR-RES ovarian.
For experiment [10], the system named is HS 578T breast.

Turning to `CC1CC2(CCC1OCc1ccccc1)OCCO2` (centres undefined), the TGI in experiment [1], in experiment [2], in experiment [3], in experiment [4], in experiment [5] and in experiment [6] was over 100 µM each time. For the same molecule, the TGI in [7] and in [8] was over 100 µM in each case.
Turning to `CCC[CH2][Sn]1([CH2]CCC)[O]C(=O)CN=Cc2ccccc2[O]1`, the GI50 in experiment [1] was 0.298 µM; in [2], 0.141 µM; in experiment [3], 0.212 µM; in experiment [4], 0.71 µM; in experiment [5], 0.305 µM; in [6], 0.136 µM. Also, the GI50 was 0.477 µM in experiment [7] and 0.205 µM in [8]. Besides, the TGI in experiment [1] stood at 1.27 µM; in experiment [2], 0.469 µM; in experiment [3], 0.75 µM; in experiment [4], 2.09 µM; in [5], 1.09 µM; in [6], 0.333 µM. The TGI in experiment [7] was 1.81 µM; in experiment [8], 0.527 µM.
`O=CN1CCN(C=S)CC1`: the TGI in [1], in [2], in [3], in experiment [4], in [5] and in experiment [6] was over 100 µM in each case. In addition, the TGI in [7] and in [8] was over 100 µM throughout.
In the case of `NC(=O)c1c2c(cc3c(=O)c4ccccc4[nH]c13)CCCC2`, the TGI was over 100 µM in experiment [1]; over 100 µM in experiment [2]; over 80.7 µM in [3]; over 100 µM in [4]; over 100 µM in experiment [5]; over 100 µM in experiment [6]. The TGI in [7] and in [8] was over 100 µM in each case.
With `COc1cc(OC)cc(-c2cncn2-c2ccc(-c3nc4cc(OC)cc(OC)c4s3)cc2)c1`, the GI50 in experiment [4] is 4.94 µM; in experiment [5], 4.76 µM; in experiment [9], 2.58 µM; in experiment [6] it was 10.3 µM; in experiment [8], 5.48 µM; in experiment [10], 5.02 µM. Also, the TGI in experiment [4], in experiment [5], in experiment [9], in experiment [6], in experiment [8] and in experiment [10] was over 100 µM throughout.
As to `CN1C(=O)C(c2c[nH]c3ccccc23)=C(c2c(-c3c[nH]c4ccccc34)[nH]c3ccccc23)C1=O`, the GI50 in experiment [1] is 2.8 µM; in experiment [4] it was 3.68 µM; in experiment [5] it was 3 µM; in experiment [9] it was 14.7 µM; in experiment [6] it was 1.7 µM; in experiment [8], 4.67 µM. In addition, the GI50 in [10] was 3 µM. Also, the TGI is 7.89 µM in experiment [1]; 11.2 µM in experiment [4]; 9.61 µM in experiment [5]; 42.8 µM in [9]; 4.72 µM in [6]; 17 µM in [8]. The TGI in experiment [10] came out at 13.6 µM.
Turning to `C=CCN(CC=C)CC(C(C)=O)C(c1ccccc1)c1c(O)c2ccccc2oc1=O` (centres undefined), the TGI in experiment [1], in [2], in experiment [3], in experiment [4], in experiment [5] and in [6] was over 100 µM in each case. Also, the TGI in [7] and in experiment [8] was over 100 µM each time.
As for `NC1=C(Cl)C(=O)c2ccccc2C1=O`, the TGI was 30.8 µM in experiment [1]; 3.13 µM in experiment [2]; 22.4 µM in experiment [3]; 11.6 µM in experiment [4]; 13.9 µM in [5]; 6.32 µM in [6]. The figures for the TGI in experiment [7] and in experiment [8] were 28.4 µM and 7.91 µM, respectively.
Take `CC(=O)O[C@H]1CC[C@@]2(C)C(=CC[C@@H]3C2CC[C@]2(C)Nc4[nH]ncc4CC32)C1` (some centres undefined): the TGI in [2] was 86.1 µM; in experiment [3], 35.8 µM; in [4] it was 29.9 µM; in [5], 30.7 µM; in experiment [6], over 100 µM; in experiment [7], over 100 µM.
On to `Cc1c(O)c(=O)ccn1CCO`, for which the TGI in [1], in experiment [2], in [3], in experiment [4], in experiment [5] and in experiment [7] was over 100 µM in each case. Besides, the TGI in experiment [8] was over 100 µM.
In the case of `COc1ccccc1NC(=O)CC(=O)NNCC(=O)Nc1nnc(-c2ccccc2)o1`, the TGI in experiment [1], in [3], in experiment [4], in [5], in experiment [6] and in experiment [7] was over 100 µM in each case. Also, the TGI in experiment [8] is over 100 µM.
`COC(=O)C1=Cc2c(cc(OC)c(OC)c2OC)[C@H](c2ccc(OC)c(OC)c2OC)C1C(=O)OC` (some centres undefined): the TGI in experiment [1], in [2], in experiment [3], in experiment [4], in experiment [5] and in experiment [6] was over 100 µM throughout. Besides, the TGI in [7] and in experiment [8] was over 100 µM in each case.
For `O=C(O)CCCNS(=O)(=O)c1ccc2ccccc2c1`, the TGI in [1], in [2], in experiment [3], in experiment [5], in [6] and in experiment [7] was over 100 µM throughout. In experiment [8], this molecule came in with a TGI of over 100 µM.
For the molecule `COc1cc2c3c(n(CCCNCCNCCCN)c(=O)c2cc1OC)-c1cc2c(cc1C3=O)OCO2`, the GI50 is 3.57 µM in [1]; 1.29 µM in [4]; 0.0177 µM in experiment [5]; 21.1 µM in experiment [9]; 2.73 µM in experiment [6]; 29.8 µM in [7]. In addition, the GI50 in experiment [8] was 1.08 µM; in experiment [10], 1.38 µM. In addition, the TGI in experiment [1] amounted to 17.9 µM; in [4], 2.56 µM; in [5], 0.422 µM; in experiment [9], 94.6 µM; in experiment [6], 10.9 µM; in experiment [7], 69.9 µM. The TGI in [8] was determined as 3.75 µM; in experiment [10], 7.93 µM.
Take `CCOC(=O)C(=O)Nc1ccc(Cl)c(C(F)(F)F)c1`: the TGI in [1], in [2], in [3], in experiment [4], in [5] and in [6] was over 100 µM throughout. In addition, the TGI in experiment [7] and in experiment [8] was over 100 µM each time.
Turning to `COc1ccc2c(c1)CCCC1C3=NCCC3(C)CSC21` (centres undefined), the TGI in experiment [1], in experiment [3], in [4], in experiment [5], in [6] and in experiment [8] was over 100 µM each time.
As to `CCOC(=O)c1cnc2cc3cccccc3n2c1=O`, the TGI in [1], in [3], in experiment [4], in experiment [5], in [6] and in [7] was over 100 µM in each case. Besides, the TGI in experiment [8] is over 100 µM.
With `O=C(O)c1ccc(C2C3C=CC(C3)C2[N+](=O)[O-])cc1` (centres undefined), the TGI in experiment [1], in experiment [2], in experiment [3], in [5], in experiment [6] and in [7] was over 100 µM throughout. In experiment [8], this molecule registered a TGI of over 100 µM.
For the molecule `CC(=O)OC12CC(C)C3(O)C4C=C(C)C(=O)[C@@]4(O)CC(CO)=C[C@H]3C1C2(C)C` (some centres undefined), the GI50 was 0.522 µM and 0.903 µM in experiment [1]; over 1000 µM in experiment [2]; over 1000 µM in experiment [4]; over 1000 µM in [5]; over 1000 µM in experiment [9]; over 1000 µM in experiment [6]. Further, the GI50 in experiment [7] and in experiment [8] was over 1000 µM throughout. Moreover, the TGI in experiment [2], in experiment [3], in [4], in [5], in experiment [9] and in experiment [6] was over 1000 µM each time. The TGI in experiment [7] and in experiment [8] was over 1000 µM throughout.
On to `Clc1cc(Cl)cc(Nc2nc3ccccc3nc2-c2cccs2)c1`, for which the TGI in experiment [1] was 32.9 µM; in [2] it was over 100 µM; in [3], over 100 µM; in experiment [4], 72 µM; in [6], over 100 µM; in experiment [7], over 100 µM. The TGI in experiment [8] was over 100 µM.
As for `OCc1ccc(Oc2c3ccccc3nc3occc23)cc1`, the GI50 in experiment [1] is 26.1 µM; in experiment [3], 21 µM; in experiment [4], 15.9 µM; in experiment [5], 27 µM; in experiment [9], 20.2 µM; in [6], 17.9 µM. Further, the GI50 in experiment [10] was 54.8 µM. Besides, the TGI was found to be 54.8 µM in [1]; 47.2 µM in experiment [3]; 29.4 µM in experiment [4]; 56 µM in experiment [5]; 49 µM in [9]; 40.3 µM in experiment [6]. In experiment [10], the TGI is over 100 µM.
`CC1=CC2CC(C)C1(C)CCc1ccoc12` (centres undefined): the TGI in experiment [1], in [2], in experiment [3], in experiment [4], in experiment [5] and in experiment [6] was over 100 µM throughout. The TGI in experiment [7] and in [8] was over 100 µM throughout.
Regarding `Cc1cc2c(cc1Br)C1(C)CCC(C)C1(C)O2` (centres undefined), the TGI stood at 29.8 µM in experiment [1]; 42.1 µM in experiment [2]; 35.6 µM in [3]; 29.1 µM in experiment [4]; 50.5 µM in experiment [5]; 67.4 µM in [6]. In addition, the results for the TGI in experiment [7] and in [8] were over 100 µM and 35.4 µM, respectively.
For the molecule `COc1ccc(C(O)/C(=C/n2ccnc2)c2ccccc2)cc1OC` (centres undefined), the TGI in experiment [1], in experiment [2], in experiment [3], in experiment [4], in experiment [5] and in experiment [6] was over 100 µM throughout. The TGI in experiment [7] and in [8] was over 100 µM in each case.
In the case of `CCOC(=O)[C@H]1Nc2ccc(Cl)cc2[C@H]2c3ccccc3O[C@H]21`, the TGI in [1], in experiment [3], in [4], in experiment [5], in [7] and in experiment [8] was over 100 µM in each case.
As to `Cc1ccc2[nH]c(C(=O)NN3C(=O)C(C)SC34CCCCC4C)c(-c3ccccc3)c2c1` (centres undefined), the GI50 in [1] was 18 µM; in experiment [2], 20.4 µM; in [3] it was 12.2 µM; in experiment [4], 17.4 µM; in experiment [5], 16.1 µM; in experiment [6] it was 24.7 µM. Moreover, the GI50 was 24.5 µM in experiment [7], 18.9 µM in [8] and 14.4 µM in [10]. Moreover, the TGI is 38.9 µM in [1]; 38.1 µM in experiment [2]; 41 µM in experiment [3]; 35.6 µM in experiment [4]; 32.8 µM in experiment [5]; 53.5 µM in [6]. In addition, the TGI in experiment [7] was found to be 61.9 µM; in [8], 35.4 µM; in experiment [10], 43.2 µM.
With `CN(CCN(C)C(=O)CCOS(C)(=O)=O)C(=O)CCOS(C)(=O)=O`, the TGI in experiment [1], in [2], in experiment [3], in experiment [4], in experiment [5] and in experiment [6] was over 100 µM in each case. In addition, the TGI in experiment [7] and in experiment [8] was over 100 µM throughout.
Take `Cn1c(=O)oc2cc(C3CCC(=O)N3Cc3ccc(Cl)cc3)ccc21` (centres undefined): the TGI in experiment [1], in experiment [2], in experiment [3], in [4], in experiment [5] and in [6] was over 100 µM each time. The TGI in [7] and in experiment [8] was over 100 µM each time.
For `COc1cc2c(c(OC)c1OC)-c1ccc(SC)c(=O)cc1C(CC(=O)Oc1cccc(C#N)c1)C2` (centres undefined), the TGI in experiment [1] was 3.41 µM; in experiment [2], over 100 µM; in [3], over 100 µM; in experiment [4] it was 5.66 µM; in experiment [6], over 34.6 µM; in [7] it was over 100 µM. Besides, in experiment [8], the TGI was over 33.2 µM.
